Patent US20020137929A1, “1 - (3-heterocyclylphenyl) isothiourea, -isourea, -guanidine and -amidine herbicidal agents” (Intellectual Property Department, BASF Aktiengesellschaft, priority 1998, published 2002)

Legend:
ZEAMX (Corn, Field) = assay: Postemergence herbicidal evaluation; format: in vivo, Zea mays; conditions: postemergence
Summary of the method: (§1)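 Two-week seedlings sprayed postemergence at 40 psi; formulation: 1:1 acetone/water, 0.5% TWEEN 20; application ≈0.0156–0.500 kg/ha. Greenhouse grow-out, then 0–9 visual scoring at 4–5 weeks.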

CYPSE (Flatsedge) [1] = assay: Postemergence weed control under flooded paddy conditions; format: in vivo, Cyperus serotinus; conditions: postemergence weeds, 3-4 weeks after treatment
Summary of the method: (§2)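 Injury ratings (0–9 scale covering stand, vigor, malformation, size, chlorosis and overall appearance versus control) were made three to four weeks after treatment. Test material, about 0.0313 to 0.500 kg/ha a.i. in 50/50 v/v aqueous/acetone, was added to flood water 1.5 to 3 cm deep over 3 to 5 cm weeds and 1.5 to 2.5 leaf rice.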

[2] = test system: SAGPY (Arrowhead (Pygmaea)); assay: as above; format: in vivo, Sagittaria pygmaea; conditions: postemergence weeds, 3-4 weeks after treatment
Summary of the method: as §2

AMBEL (Ragweed, Common) = assay: Preemergence herbicidal evaluation; format: in vivo, Ambrosia artemisifolia; conditions: rated 4-5 weeks after treatment
Summary of the method: (§3)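 Steps: mix seeds into potting soil; plant atop ~1 inch soil; spray compound in aqueous acetone (~0.0156-0.500 kg/ha equivalent); maintain in greenhouse with watering; rate visually 0-9 versus control at 4-5 weeks.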

MOOVA (Monochoria) = assay: Preemergence weed control under flooded paddy conditions; format: in vivo, Monochoria vaginalis; conditions: rated 3-4 weeks after treatment
Summary of the method: (§4)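 Visual injury scored 0-9 against control three to four weeks post-treatment, greenhouse-grown. Application: acetone/water (50/50) solutions dosed directly into flood water (1.5-3 cm over silt loam, planted top 0.5 cm), roughly 0.0313 to 0.500 kg/ha active ingredient.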

[3] = test system: GLXMAW (Soybean, Williams); assay: Preemergence herbicidal evaluation; format: in vivo, Glycine max, (L.) Merr. cv Williams; conditions: rated 4-5 weeks after treatment
Summary of the method: as §3

CASOB (Sicklepod) = assay: Postemergence herbicidal evaluation; format: in vivo, Cassia obtusifolia; conditions: postemergence
Summary of the method: as §1

CYPSE (Flatsedge) [4] = assay: Preemergence weed control under flooded paddy conditions; format: in vivo, Cyperus serotinus; conditions: rated 3-4 weeks after treatment
Summary of the method: as §4

ORYSAT (Rice, Tebonnet) [5] = assay: Postemergence herbicidal evaluation; format: in vivo, Oryza sativa, (L.) Tebonnet; conditions: postemergence
Summary of the method: as §1

ORYSAT (Rice, Tebonnet) [6] = assay: Preemergence herbicidal evaluation; format: in vivo, Oryza sativa, (L.) Tebonnet; conditions: rated 4-5 weeks after treatment
Summary of the method: as §3

[7] = test system: CHEAL (Lambsquarters, Common); assay: Postemergence herbicidal evaluation; format: in vivo, Chenopodium album; conditions: postemergence
Summary of the method: as §1

SETVI (Foxtail, Green) = assay: Preemergence herbicidal evaluation; format: in vivo, Setaria viridis; conditions: rated 4-5 weeks after treatment
Summary of the method: as §3

CYPIR (Rice Flatsedge) = assay: Postemergence weed control under flooded paddy conditions; format: in vivo, Cyperus iria; conditions: postemergence weeds, 3-4 weeks after treatment
Summary of the method: as §2

GALAP (Galium) = assay: Postemergence herbicidal evaluation; format: in vivo, Galium aparine; conditions: postemergence
Summary of the method: as §1

## CCOC(=O)CN1C(=O)C(=C2CCCC2)SC1=Nc1cc(-n2c(=O)cc(C(F)(F)F)n(C)c2=O)c(F)cc1Cl [Compound 18, Ethyl 2-{{2-chloro-5-[3,6-dihydro-3-methyl-2,6-dioxo-4-(trifluoromethyl)-1(2H)-pyrimidinyl]-4-fluorophenyl}imino}-5-cyclopentylidene-4-oxo-3-thiazolidineacetate]
ZEAMX (Corn, Field); rate 0.0158 kg/ha
  ZEAMX herbicidal rating: 4.0
ZEAMX (Corn, Field); rate 0.0315 kg/ha
  ZEAMX herbicidal rating: 4.5
ZEAMX (Corn, Field); rate 0.0630 kg/ha
  ZEAMX herbicidal rating: 4.0
CYPSE (Flatsedge) [1]; rate 0.1160 kg/ha
  Herbicidal rating CYPSE: 0.0
CYPSE (Flatsedge) [1]; rate 0.2310 kg/ha
  Herbicidal rating CYPSE: 0.0
CYPSE (Flatsedge) [1]; rate 0.4630 kg/ha
  Herbicidal rating CYPSE: 4.0
[2]; rate 0.1160 kg/ha
  Herbicidal rating SAGPY: 0.0
[2]; rate 0.2310 kg/ha
  Herbicidal rating SAGPY: 0.0
[2]; rate 0.4630 kg/ha
  Herbicidal rating SAGPY: 6.0
AMBEL (Ragweed, Common); rate 0.1250 kg/ha
  AMBEL preemergence herbicidal rating: 1.0
AMBEL (Ragweed, Common); rate 0.2500 kg/ha
  AMBEL preemergence herbicidal rating: 4.0
MOOVA (Monochoria); 0.1160 kg/ha
  Herbicidal rating MOOVA: 9.0
MOOVA (Monochoria); 0.2310 kg/ha
  Herbicidal rating MOOVA: 9.0
MOOVA (Monochoria); 0.4630 kg/ha
  Herbicidal rating MOOVA: 9.0
[3]; rate 0.1250 kg/ha
  GLXMAW preemergence herbicidal rating: 0.0
[3]; rate 0.2500 kg/ha
  GLXMAW preemergence herbicidal rating: 3.0
CASOB (Sicklepod); rate 0.0158 kg/ha
  CASOB herbicidal rating: 0.0
CASOB (Sicklepod); rate 0.0315 kg/ha
  CASOB herbicidal rating: 1.0
CASOB (Sicklepod); rate 0.0630 kg/ha
  CASOB herbicidal rating: 1.0
CYPSE (Flatsedge) [4]; 0.1160 kg/ha
  Herbicidal rating CYPSE: 0.0
CYPSE (Flatsedge) [4]; 0.2310 kg/ha
  Herbicidal rating CYPSE: 0.0
CYPSE (Flatsedge) [4]; 0.4630 kg/ha
  Herbicidal rating CYPSE: 4.0
ORYSAT (Rice, Tebonnet) [5]; rate 0.0158 kg/ha
  ORYSAT herbicidal rating: 2.0
ORYSAT (Rice, Tebonnet) [5]; rate 0.0315 kg/ha
  ORYSAT herbicidal rating: 1.5
ORYSAT (Rice, Tebonnet) [5]; rate 0.0630 kg/ha
  ORYSAT herbicidal rating: 1.5
ORYSAT (Rice, Tebonnet) [6]; rate 0.1250 kg/ha
  ORYSAT preemergence herbicidal rating: 0.0
ORYSAT (Rice, Tebonnet) [6]; rate 0.2500 kg/ha
  ORYSAT preemergence herbicidal rating: 0.0
[7]; rate 0.0158 kg/ha
  CHEAL herbicidal rating: 6.0
[7]; rate 0.0315 kg/ha
  CHEAL herbicidal rating: 9.0
[7]; rate 0.0630 kg/ha
  CHEAL herbicidal rating: 9.0
SETVI (Foxtail, Green); rate 0.1250 kg/ha
  SETVI preemergence herbicidal rating: 0.0
SETVI (Foxtail, Green); rate 0.2500 kg/ha
  SETVI preemergence herbicidal rating: 2.0
CYPIR (Rice Flatsedge); rate 0.1160 kg/ha
  Herbicidal rating CYPIR: 0.0
CYPIR (Rice Flatsedge); rate 0.2310 kg/ha
  Herbicidal rating CYPIR: 0.0
CYPIR (Rice Flatsedge); rate 0.4630 kg/ha
  Herbicidal rating CYPIR: 0.0
GALAP (Galium); rate 0.0158 kg/ha
  GALAP herbicidal rating: 2.0
GALAP (Galium); rate 0.0315 kg/ha
  GALAP herbicidal rating: 5.0
GALAP (Galium); rate 0.0630 kg/ha
  GALAP herbicidal rating: 6.0

## CCOC(=O)CN1C(=O)C(=C(C)C)S/C1=N/c1cc(-n2c(=O)cc(C(F)(F)F)n(C)c2=O)c(F)cc1Cl [Compound 20, Ethyl 2-{{2-chloro-5-[3,6-dihydro-3-methyl-2,6-dioxo-4-(trifluoromethyl)-1(2H)-pyrimidinyl]-4-fluorophenyl}imino}-5-isopropylidene-4-oxo-3-thiazolidineacetate]
ZEAMX (Corn, Field); rate 0.0158 kg/ha
  ZEAMX herbicidal rating: 4.5
ZEAMX (Corn, Field); rate 0.0315 kg/ha
  ZEAMX herbicidal rating: 5.0
ZEAMX (Corn, Field); rate 0.0630 kg/ha
  ZEAMX herbicidal rating: 5.5
CYPSE (Flatsedge) [1]; rate 0.1160 kg/ha
  Herbicidal rating CYPSE: 5.0
CYPSE (Flatsedge) [1]; rate 0.2310 kg/ha
  Herbicidal rating CYPSE: 5.0
CYPSE (Flatsedge) [1]; rate 0.4630 kg/ha
  Herbicidal rating CYPSE: 5.0
[2]; rate 0.1160 kg/ha
  Herbicidal rating SAGPY: 0.0
[2]; rate 0.2310 kg/ha
  Herbicidal rating SAGPY: 0.0
[2]; rate 0.4630 kg/ha
  Herbicidal rating SAGPY: 3.0
AMBEL (Ragweed, Common); rate 0.0625 kg/ha
  AMBEL preemergence herbicidal rating: 0.0
AMBEL (Ragweed, Common); rate 0.1250 kg/ha
  AMBEL preemergence herbicidal rating: 0.0
AMBEL (Ragweed, Common); rate 0.2500 kg/ha
  AMBEL preemergence herbicidal rating: 3.0
MOOVA (Monochoria); 0.1160 kg/ha
  Herbicidal rating MOOVA: 9.0
MOOVA (Monochoria); 0.2310 kg/ha
  Herbicidal rating MOOVA: 9.0
MOOVA (Monochoria); 0.4630 kg/ha
  Herbicidal rating MOOVA: 9.0
[3]; rate 0.0625 kg/ha
  GLXMAW preemergence herbicidal rating: 0.0
[3]; rate 0.1250 kg/ha
  GLXMAW preemergence herbicidal rating: 0.0
[3]; rate 0.2500 kg/ha
  GLXMAW preemergence herbicidal rating: 4.0
CASOB (Sicklepod); rate 0.0158 kg/ha
  CASOB herbicidal rating: 0.0
CASOB (Sicklepod); rate 0.0315 kg/ha
  CASOB herbicidal rating: 0.0
CASOB (Sicklepod); rate 0.0630 kg/ha
  CASOB herbicidal rating: 2.0
CYPSE (Flatsedge) [4]; 0.1160 kg/ha
  Herbicidal rating CYPSE: 5.0
CYPSE (Flatsedge) [4]; 0.2310 kg/ha
  Herbicidal rating CYPSE: 5.0
CYPSE (Flatsedge) [4]; 0.4630 kg/ha
  Herbicidal rating CYPSE: 5.0
ORYSAT (Rice, Tebonnet) [5]; rate 0.0158 kg/ha
  ORYSAT herbicidal rating: 2.0
ORYSAT (Rice, Tebonnet) [5]; rate 0.0315 kg/ha
  ORYSAT herbicidal rating: 2.0
ORYSAT (Rice, Tebonnet) [5]; rate 0.0630 kg/ha
  ORYSAT herbicidal rating: 3.0
ORYSAT (Rice, Tebonnet) [6]; rate 0.0625 kg/ha
  ORYSAT preemergence herbicidal rating: 0.0
ORYSAT (Rice, Tebonnet) [6]; rate 0.1250 kg/ha
  ORYSAT preemergence herbicidal rating: 0.0
ORYSAT (Rice, Tebonnet) [6]; rate 0.2500 kg/ha
  ORYSAT preemergence herbicidal rating: 0.0
[7]; rate 0.0158 kg/ha
  CHEAL herbicidal rating: 4.0
[7]; rate 0.0315 kg/ha
  CHEAL herbicidal rating: 6.0
[7]; rate 0.0630 kg/ha
  CHEAL herbicidal rating: 7.0
SETVI (Foxtail, Green); rate 0.0625 kg/ha
  SETVI preemergence herbicidal rating: 0.0
SETVI (Foxtail, Green); rate 0.1250 kg/ha
  SETVI preemergence herbicidal rating: 0.0
SETVI (Foxtail, Green); rate 0.2500 kg/ha
  SETVI preemergence herbicidal rating: 7.0
CYPIR (Rice Flatsedge); rate 0.1160 kg/ha
  Herbicidal rating CYPIR: 0.0
CYPIR (Rice Flatsedge); rate 0.2310 kg/ha
  Herbicidal rating CYPIR: 0.0
CYPIR (Rice Flatsedge); rate 0.4630 kg/ha
  Herbicidal rating CYPIR: 0.0
GALAP (Galium); rate 0.0158 kg/ha
  GALAP herbicidal rating: 1.0
GALAP (Galium); rate 0.0315 kg/ha
  GALAP herbicidal rating: 2.0
GALAP (Galium); rate 0.0630 kg/ha
  GALAP herbicidal rating: 6.0
